Patent US11166948B2, “Pharmaceutical composition for treatment of aortic aneurysm” (National University Corporation Hamamatsu University School …, priority 2017, dated 2021)

Assays:
[1] = system: elastase-induced model rats; conditions: preventive administration before AAA formation; cited from earlier work
[2] = system: aortic wall hypoxia-induced rat AAA model; assay: Action of Compound 1 in aortic wall hypoxia-induced rat AAA model; format: in vivo; conditions: vs control group; for mortality due to rupture (non-rupture survival rate): day of operation to Day 28 post operation
Excerpt: The action of Compound 1 in a rat AAA model (Non-Patent Document 3) induced by operation in which the aortic wall was separated from the surrounding tissue, a catheter was inserted, and then the abdominal aorta was ligated together with a catheter with a thread was studied.
In this test, Compound 1 was manufactured according to the method described in Patent Document 1, and mixed, in a proportion of 0.15%, with a normal diet (FR2, manufactured by Funabashi Farm Co., Ltd.), and the Compound 1-mixed diet was used.
Sprague-Dawley male rats (300 to 350 g: Japan SLC, Inc.) were used in the experiment. The rats were reared at room temperature of 25° C. ±1° C., and allowed to freely take the feed and water.
The model was created according to the method described in Non-Patent Document 3. Specifically, a rat AAA model was created by separating the rat aortic wall from the surrounding tissue, inserting a polyurethane catheter, and then ligating the abdominal aorta together with a plastic catheter with a monofilament thread, and inducing AAA.
The rat models were divided into two groups: a normal diet administration group (hereinafter referred to as “control group”) (n=20) and a 0.15% Compound 1-mixed diet administration group (hereinafter referred to as “Compound 1 group”) (n=20). The normal diet or Compound 1-mixed diet was freely fed in a period from one week before the AAA model creation operation (7 days before operation) to the end of the experiment.
In both the groups, up to 28 days post operation, the aneurysm diameter was measured by echo and comparison in survival was made.
In addition, the surviving animals were sacrificed after 28 days to analyze the AAA pathological tissue.
The AAA maximum short-axis diameter was measured with an ultrasonic diagnostic apparatus (Vevo770, manufactured by VisualSonics Inc.) on the day of operation and Day 7, Day 14, Day 21 and Day 28 post operation.
In the same models as in Example 1, the effect of Compound 1 on the formed AAA was studied.
Specifically, the administration of the Compound 1-mixed diet was started one week after the AAA model creation operation (7 days after operation) until the end of the experiment in this example, in place of one week before the AAA model creation operation (7 days before operation) until the end of the experiment in Example 1 (3). In addition, on Day 7 post operation, rats having an aortic aneurysm diameter of 3 mm or more were selected by measurement with an ultrasonic diagnostic apparatus (Vevo770, manufactured by VisualSonics Inc.), and then the rats were randomly divided into two groups: a normal diet administration group (hereinafter referred to as “control group”) (n=18) and a 0.15% Compound 1-mixed diet administration group (hereinafter referred to as “Compound 1 group”) (n=15). […]

Structure (SMILES)	AAA dilatation [1]	aneurysm diameter (AAA maximum short-axis diameter) ([2]; Example 1: 0.15% Compound 1-mixed diet from 7 days before operation to end of experiment, echo up to Day 28 post operation, no significant difference)	mortality due to rupture (non-rupture survival rate) ([2]; Example 1: 0.15% Compound 1-mixed diet from 7 days before operation, Log Rank p=0.036)	mortality due to rupture (non-rupture survival rate) ([2]; Example 2: 0.15% Compound 1-mixed diet from 7 days after operation (formed AAA), Log Rank p=0.055)	aneurysm diameter (AAA maximum short-axis diameter) ([2]; Example 2: 0.15% Compound 1-mixed diet from 7 days after operation (formed AAA, diameter 3 mm or more), Day 7 to Day 14 post operation, p=0.014)
O=C1CCc2cc(OCCCCc3nnnn3C3CCCCC3)ccc2N1 [cilostazol]	suppresses AAA dilatation				
O=C(NCCCOc1ccc2[nH]c(=O)ccc2c1)N(C1CC1)[C@@H]1CCCC[C@H]1O [Compound 1, (−)-6-[3-[3-cyclopropyl-3-[(1R,2R)-2-hydroxycyclohexyl]ureido]propoxy]-2(1H)-quinolinone]		tendency toward suppression of the increase in the aneurysm diameter	significantly lower	lower	significantly lower
